Measured values published in ChEMBL document CHEMBL1150476, “Peptoid mimics of a C2-symmetric inhibitor of the HIV-1 protease” (Bioorg Med Chem Lett, 1994).

Legend:
[1] = target: Human immunodeficiency virus type 1 protease (Human immunodeficiency virus 1) (UniProt Q72874); test: Concentration required for inhibitory activity against HIV-1 protease at concentration of 10e-5 M by using SQN-(pNO2)F-PIV as substrate; No significant activity
[2] = target: Human immunodeficiency virus type 1 protease (Human immunodeficiency virus 1) (UniProt Q72874); test: Concentration required for inhibitory activity against HIV-1 protease at concentration of 10e-5 M by using HKARVL-(pNO2)F-EAnLSNH2 as substrate; No significant activity
[3] = target: Human immunodeficiency virus type 1 protease (Human immunodeficiency virus 1) (UniProt Q72874); test: Concentration required for inhibitory activity against HIV-1 protease at concentration of 10e-5 M by using TLNFPIS AMC as substrate; No significant activity

Measured: Activity

CC(C)N(CC(=O)N(Cc1ccccc1)CC(O)CN(Cc1ccccc1)C(=O)CN(C(=O)CN(C(=O)CCC(=O)O)C(C)C)C(C)C)C(=O)CN(C(=O)CCC(=O)O)C(C)C
inactive: [1] No significant activity | [2] No significant activity | [3] No significant activity

CCCCCCCC/C=C\CCCCCCCC(=O)N(CC(=O)N(CC(=O)N(Cc1ccccc1)CC(O)CN(Cc1ccccc1)C(=O)CN(C(=O)CN(C(=O)CCCCCCC/C=C\CCCCCCCC)C(C)C)C(C)C)C(C)C)C(C)C
inactive: [1] No significant activity | [2] No significant activity | [3] No significant activity

CC(C)NCC(=O)N(CC(=O)N(Cc1ccccc1)CC(O)CN(Cc1ccccc1)C(=O)CN(C(=O)CNC(C)C)C(C)C)C(C)C
inactive: [1] No significant activity | [2] No significant activity | [3] No significant activity

CC(C)N(CC(=O)N(Cc1ccccc1)CC(O)CN(Cc1ccccc1)C(=O)CN(C(=O)CN(C(=O)OCc1ccccc1)C(C)C)C(C)C)C(=O)CN(C(=O)OCc1ccccc1)C(C)C
inactive: [1] No significant activity | [2] No significant activity | [3] No significant activity

CC(C)N(CC(=O)N(Cc1ccccc1)CC(O)CN(Cc1ccccc1)C(=O)CN(C(=O)CN(C(=O)OC(C)(C)C)C(C)C)C(C)C)C(=O)CN(C(=O)OC(C)(C)C)C(C)C
inactive: [1] No significant activity | [2] No significant activity | [3] No significant activity
